# Measurements from US6165977A, “Isozyme-specific activators of protein kinase C methods and compositions” (Board of Trustees of the Leland Stanford Junior University, priority 1997, dated 2000).
# No end group written: not given here.
# What was measured:
# εPKC [1] = target: T1, εPKC (Rattus norvegicus, UniProt P09216); experiment: Peptide-induced translocation of PKC in cardiac myocytes; assay type: cell-based; conditions: 10 μg/ml in permeabilization buffer
# T1 construct: Western Blot of cardiac myocyte soluble and particulate fractions; endogenous in cells; host or cells: primary neonatal Sprague-Dawley rat ventricular myocytes
# T1 sequence (P09216 1-737): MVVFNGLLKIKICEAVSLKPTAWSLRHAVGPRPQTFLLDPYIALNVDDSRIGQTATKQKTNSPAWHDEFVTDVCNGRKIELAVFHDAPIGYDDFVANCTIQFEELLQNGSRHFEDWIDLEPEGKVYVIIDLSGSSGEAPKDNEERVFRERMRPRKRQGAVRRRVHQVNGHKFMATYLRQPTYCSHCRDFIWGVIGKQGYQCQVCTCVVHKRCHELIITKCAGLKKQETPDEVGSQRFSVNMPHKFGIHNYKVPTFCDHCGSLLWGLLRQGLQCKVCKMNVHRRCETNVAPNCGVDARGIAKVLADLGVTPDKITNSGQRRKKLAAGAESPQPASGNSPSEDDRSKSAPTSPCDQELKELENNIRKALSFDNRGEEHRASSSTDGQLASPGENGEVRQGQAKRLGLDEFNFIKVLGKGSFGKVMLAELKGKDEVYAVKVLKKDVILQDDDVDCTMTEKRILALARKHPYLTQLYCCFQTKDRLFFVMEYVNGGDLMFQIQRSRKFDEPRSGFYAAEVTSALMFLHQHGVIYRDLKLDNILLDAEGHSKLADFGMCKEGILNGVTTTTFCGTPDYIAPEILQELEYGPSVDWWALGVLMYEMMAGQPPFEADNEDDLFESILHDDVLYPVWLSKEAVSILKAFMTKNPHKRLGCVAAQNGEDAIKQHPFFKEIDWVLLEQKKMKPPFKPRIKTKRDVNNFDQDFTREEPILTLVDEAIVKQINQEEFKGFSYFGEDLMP
# Experimental: (§1) Primary cell cultures were prepared as previously described (Disatnik, et al., 1994). Briefly, ventricles from day-old Sprague-Dawley rats were minced, and single isolated myocytes were obtained by alternating cycles of room temperature trypsinization and mechanical dissociation. Cells were washed and preplated in medium 199 with Hanks' salt solution (Gibco/BRL Life Technologies, Gaithersburg, Md.) containing 10% fetal bovine serum (Hyclone Laboratories, Inc., Logan, Utah) to reduce the number of contaminating non-myocardial cells (NMCs). After 30 minutes nonattached cardiac myocytes were collected and replated at a density of 800 cells per mm^2 into 8-well glass chamber slides (Nunc, Naperville, Ill.) for cell viability assays and immunofluorescence staining, into 6-well plastic culture plates (Fisher Scientific, Pittsburgh, Pa.) for lactate dehydrogenase (LDH) assays, or into 100 mm glass culture dishes for Western blot analyses. […]
# Immunofluorescence staining of cardiac myocytes grown on 8-well glass chamber slides was carried out as previously described (Hauser, et al., 1993). […] Images were recorded on Kodak TMAX 400 film with exposure time of 1 second for all photomicrographs and were processed by an automated, commercial developer without additional adjustment. […]
# cardiac myocytes [2] = experiment: Protection of cardiac myocytes from 9 hours of hypoxia by peptides, cell viability assay; assay type: cell-based, rat; conditions: after 9 hours of hypoxia; peptide introduced by saponin permeabilization; average of two experiments
# Experimental: as §1
# (§2) Following treatment of cardiac myocytes grown on 8-well chamber slides, living and dead cells were distinguished using the "EUKOLIGHT" Viability/Cytotoxicity assay (Molecular Probes, Eugene, Oreg.). […] The number of viable (green fluorescent by calcine) and non-viable (red fluorescent by ethidium) cardiac myocytes present in 10-20 random microscopic fields per condition per experiment was recorded. […]
# εPKC [3] = target: T1, εPKC; experiment: Effect of isoform-specific inhibitory peptides on PMA-induced PKC translocation, Western blot; assay type: cell-based; conditions: peptide introduced by permeabilization, 10 nM PMA for 10 minutes
# Experimental: (§3) Briefly, ventricles from day-old Sprague-Dawley rats were minced, and single isolated myocytes were obtained by alternating cycles of room temperature trypsinization and mechanical dissociation. […] After 30 minutes nonattached cardiac myocytes were collected and replated at a density of 800 cells per mm^2 into 8-well glass chamber slides (Nunc, Naperville, Ill.) for cell viability assays and immunofluorescence staining, into 6-well plastic culture plates (Fisher Scientific, Pittsburgh, Pa.) for lactate dehydrogenase (LDH) assays, or into 100 mm glass culture dishes for Western blot analyses. […] Experiments were conducted on culture days 6-8.
# (§4) Following treatment, medium from one plate was removed, and cells were washed twice with ice-cold phosphate-buffered saline (PBS). 1.5 ml of chilled homogenization buffer consisting of 10 mM Tris-HCl pH 7.4, 1 mM EDTA, 1 mM EGTA, 0.25 M sucrose, and […] each of phenylmethylsulfonyl fluoride, soybean trypsin inhibitor, leupeptin, and aprotinin was added to each dish. Myocytes were scraped from the plates and triturated 3 times with a tuberculin syringe attached to a 22-gauge needle. […] Supernatants were concentrated to a volume of […] with a Centricon 30 filtration unit (Amicon, Beverly, Mass.).
# βPKC = experiment: Western blot of PMA-induced PKC translocation from cell soluble to particulate fraction; assay type: cell-based, rat; conditions: 10 nM PMA for 10 minutes, cardiac myocytes
# Experimental: as §3, §4
# δPKC = target: T2, δPKC (Rattus norvegicus, UniProt P09215); experiment: as above; assay type: cell-based; conditions: 10 nM PMA for 10 minutes, cardiac myocytes
# T2 construct: Western Blot of cardiac myocyte soluble and particulate fractions; endogenous in cells; host or cells: primary neonatal Sprague-Dawley rat ventricular myocytes
# T2 sequence (P09215 whole entry): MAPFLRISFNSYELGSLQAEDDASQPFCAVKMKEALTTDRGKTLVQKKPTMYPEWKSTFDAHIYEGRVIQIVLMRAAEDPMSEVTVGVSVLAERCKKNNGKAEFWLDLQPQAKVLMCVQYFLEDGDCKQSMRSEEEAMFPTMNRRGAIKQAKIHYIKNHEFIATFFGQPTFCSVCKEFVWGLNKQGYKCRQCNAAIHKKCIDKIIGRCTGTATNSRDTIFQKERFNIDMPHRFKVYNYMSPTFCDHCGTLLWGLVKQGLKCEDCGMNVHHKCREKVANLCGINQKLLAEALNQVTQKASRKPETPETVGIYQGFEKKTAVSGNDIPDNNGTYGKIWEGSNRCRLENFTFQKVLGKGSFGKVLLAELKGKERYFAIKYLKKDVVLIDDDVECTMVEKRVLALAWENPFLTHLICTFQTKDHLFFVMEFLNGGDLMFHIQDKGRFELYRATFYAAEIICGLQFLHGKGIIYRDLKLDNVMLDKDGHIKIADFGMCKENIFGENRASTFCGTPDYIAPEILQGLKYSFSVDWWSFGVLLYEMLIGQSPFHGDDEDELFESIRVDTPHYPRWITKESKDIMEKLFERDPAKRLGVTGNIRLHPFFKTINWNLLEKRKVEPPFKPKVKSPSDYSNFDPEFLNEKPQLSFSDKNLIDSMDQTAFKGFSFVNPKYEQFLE
# Experimental: Primary cell cultures were prepared as previously described (Disatnik, et al., 1994). Briefly, ventricles from day-old Sprague-Dawley rats were minced, and single isolated myocytes were obtained by alternating cycles of room temperature trypsinization and mechanical dissociation. Cells were washed and preplated in medium 199 with Hanks' salt solution (Gibco/BRL Life Technologies, Gaithersburg, Md.) containing 10% fetal bovine serum (Hyclone Laboratories, Inc., Logan, Utah) to reduce the number of contaminating non-myocardial cells (NMCs). […]
# Western blot analyses of cardiac myocytes grown on 100 mm glass dishes were carried out as previously described (Liu, Y., et al., 1995). […] Soluble and particulate fractions were then subjected to 12% SDS-PAGE and transferred to nitrocellulose sheets. βPKC levels were determined using monoclonal anti-βPKC antibodies (Seikagaku Kogyo, Tokyo, Japan) diluted 1:1000 followed by incubation with rabbit anti-mouse IgG antibodies (Cappel, Durham, N.C.), also at 1:1000 dilution. δPKC and εPKC levels were determined using rabbit polyclonal anti-δPKC and anti-εPKC antibodies (Gibco/BRL), each at 1:300 dilution. Western blots were then incubated with ^125 I-protein A (ICN Biomedicals, Inc., Irvine, Calif.), and PKC immunoreactive bands were detected by autoradiography.
# The ability of PMA to activate the PKC isozymes αPKC, βPKC, δPKC and εPKC was evaluated. […]
# εPKC [4] = target: T1, εPKC; experiment: as above; assay type: cell-based; conditions: 10 nM PMA for 10 minutes, cardiac myocytes
# Experimental: as §3, §4
# cardiac myocytes [5] = experiment: PMA-induced protection of cardiac myocytes from prolonged hypoxia, cell viability assay; assay type: cell-based, rat; conditions: 10 nM PMA for 10 minutes, washed, then 9 hours of hypoxia
# Experimental: as §1, §2
compound,measurement,setting,value
HDAPIGYD [εV1-7],cells with translocation of εPKC,εPKC [1],70%
same,viable cells,cardiac myocytes [2],65%
EAVSLKPT [εV1-2],reduction in the particulate signal compared with PMA alone (densitometry),εPKC [3],23%
SLNPEWNET [β pseudo-RACK peptide],viable cells,cardiac myocytes [2],35%
"CCCCCCCCCCCCCC(=O)O[C@@H]1[C@@H](C)[C@@]2(O)[C@@H](C=C(CO)C[C@]3(O)C(=O)C(C)=C[C@@H]23)[C@@H]2C(C)(C)[C@]12OC(C)=O [PMA, 4β-phorbol 12-myristate 13-acetate]",translocation of βPKC from the cell soluble to the cell particulate fraction,βPKC,minimal translocation
same,translocation of δPKC in response to PMA,δPKC,robust
same,translocation of εPKC in response to PMA,εPKC [4],robust
same,increase in the proportion of surviving myocytes versus control,cardiac myocytes [5],34%
